Results reported in ChEMBL document CHEMBL3039007, “Structure-based identification of OATP1B1/3 inhibitors” (Mol Pharmacol, 2013).
Residues, ends and D or L forms follow the SMILES beside them.

Assays:
[1] = target: T1, Solute carrier organic anion transporter family member 1B3 (Homo sapiens, UniProt Q9NPD5); settings: chinese hamster, cho, 10 µM
T1 sequence (Q9NPD5 whole entry): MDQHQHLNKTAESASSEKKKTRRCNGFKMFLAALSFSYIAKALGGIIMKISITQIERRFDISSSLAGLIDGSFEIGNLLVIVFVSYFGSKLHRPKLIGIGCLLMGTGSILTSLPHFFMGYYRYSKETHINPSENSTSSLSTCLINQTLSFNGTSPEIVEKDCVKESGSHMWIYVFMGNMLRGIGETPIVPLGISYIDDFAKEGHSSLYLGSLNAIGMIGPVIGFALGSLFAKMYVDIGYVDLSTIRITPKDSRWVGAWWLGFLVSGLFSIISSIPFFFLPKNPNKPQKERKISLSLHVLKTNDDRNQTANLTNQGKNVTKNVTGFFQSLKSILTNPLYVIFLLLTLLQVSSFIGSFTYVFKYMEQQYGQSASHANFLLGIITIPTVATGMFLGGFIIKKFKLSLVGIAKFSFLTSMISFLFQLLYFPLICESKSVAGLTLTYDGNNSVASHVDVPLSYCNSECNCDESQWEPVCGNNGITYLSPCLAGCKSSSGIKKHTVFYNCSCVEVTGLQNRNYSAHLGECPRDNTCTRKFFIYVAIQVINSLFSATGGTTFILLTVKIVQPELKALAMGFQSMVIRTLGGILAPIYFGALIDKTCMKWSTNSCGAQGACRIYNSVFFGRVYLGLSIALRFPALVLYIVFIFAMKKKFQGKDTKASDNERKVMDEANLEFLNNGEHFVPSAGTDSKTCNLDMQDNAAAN

[2] = target: T2, Solute carrier organic anion transporter family member 1B1 (Homo sapiens, UniProt Q9Y6L6); settings: chinese hamster, cho, 10 µM
T2 sequence (Q9Y6L6 whole entry): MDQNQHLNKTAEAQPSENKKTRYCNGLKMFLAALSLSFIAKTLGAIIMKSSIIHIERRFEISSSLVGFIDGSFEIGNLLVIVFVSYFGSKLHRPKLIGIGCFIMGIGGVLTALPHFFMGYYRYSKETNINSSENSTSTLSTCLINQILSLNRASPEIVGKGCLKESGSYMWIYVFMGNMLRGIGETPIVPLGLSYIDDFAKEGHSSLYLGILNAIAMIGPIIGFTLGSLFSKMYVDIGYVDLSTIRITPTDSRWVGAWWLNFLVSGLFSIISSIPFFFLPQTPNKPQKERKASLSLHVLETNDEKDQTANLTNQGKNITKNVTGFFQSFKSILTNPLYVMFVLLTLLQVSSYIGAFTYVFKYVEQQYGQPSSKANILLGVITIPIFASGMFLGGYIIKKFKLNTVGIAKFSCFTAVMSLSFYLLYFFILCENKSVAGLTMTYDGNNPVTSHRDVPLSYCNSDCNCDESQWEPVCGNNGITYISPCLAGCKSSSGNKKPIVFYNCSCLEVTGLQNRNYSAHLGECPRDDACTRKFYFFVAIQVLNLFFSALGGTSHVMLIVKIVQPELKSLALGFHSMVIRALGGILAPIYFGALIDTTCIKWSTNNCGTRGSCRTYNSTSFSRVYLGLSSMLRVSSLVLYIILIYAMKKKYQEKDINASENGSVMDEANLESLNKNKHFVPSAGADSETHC

Structure (SMILES)	residual activity [1] [%]	residual activity [2] [%]
O=C(O)c1ccc(S(=O)(=O)N(Cl)Cl)cc1 [HALAZONE]	84.35	97.95
CC1CC[C@]2(OC1)OC1C[C@H]3[C@@H]4CC[C@H]5C[C@@H](O)CC[C@]5(C)C4=CC[C@]3(C)C1[C@@H]2C (stereo partly specified)	108.3	109.1
CC(C)C[C@H](N)C(=O)N[C@@H](C)C(=O)O [LEU-ALA] (H-Leu-Ala-OH)	96.54	93.04
C[C@H](CCC(=O)O)[C@H]1CC[C@H]2[C@@H]3[C@H](O)C[C@@H]4C[C@H](O)CC[C@]4(C)[C@H]3CC[C@]12C [CHENODIOL]	71.62	37.88
O=C1c2c(O)cccc2Cc2cccc(O)c21 [ANTHRALIN]	90.63	86.38
Cl.O=C(O)CCC1NCC2CC1CN1CCCCC21 (stereo unspecified) [LUPANYL ACID HYDROCHLORIDE]	103.3	104.4
COc1cccc(/C=C/C(=O)O)c1C(C)C [2-ISOPROPYL-3-METHOXYCINNAMIC ACID]	87.92	137.6
CCn1cc(C(=O)O)c(=O)c2ccc(C)nc21 [NALIDIXIC ACID]	81.71	63.37
c1ccc2c(c1)sc1ccccc12 [DIBENZOTHIOPHENE]	93.83	114.7
CCN(Cc1ccncc1)C(=O)C(CO)c1ccccc1 (stereo unspecified) [TROPICAMIDE]	81.94	75.11
C=CC(C1=CC(=O)C(OC)=CC1=O)c1ccc(OC)cc1 (stereo unspecified) [4,4'-DIMETHOXYDALBERGIONE]	101.4	116.4
COC[C@]12CN(C=O)C3[C@@H]4[C@H](OC)[C@H]1[C@@]3([C@@H](OC)C[C@H]2O)[C@@H]1C[C@@]2(O)[C@H](OC(=O)c3ccccc3)[C@@H]1[C@]4(OC(C)=O)[C@@H](O)[C@@H]2OC	73.94	90.86
CC(C(=O)O)c1ccc(C(=O)c2cccs2)cc1 (stereo unspecified) [SUPROFEN]	96.21	108.5
O=C(O)CCCCCCCC(=O)O [AZELAIC ACID]	107.2	100.4
CC1(C)CC23C(=O)CCC(O)C2(C)CCC13 (stereo unspecified) [3-NOR-3-OXOPANASINSAN-6-OL]	112.2	100.8
Cc1cc(=O)[nH]c(=S)[nH]1 [METHYLTHIOURACIL]	80.5	83.19
Oc1ccc2c(c1)O[C@H](c1ccc(O)c(O)c1)[C@@H](O)C2 [FISETINIDOL]	95.23	74.52
CN(C)[C@@H]1C(O)=C(C(N)=O)C(=O)[C@@]2(O)C(O)=C3C(=O)c4c(O)ccc(Cl)c4[C@@](C)(O)[C@H]3C[C@@H]12.Cl [CHLORTETRACYCLINE HYDROCHLORIDE]	95.91	128.8
COc1cc(OC)c2c(OC)c(-c3ccc4c(c3)OCO4)c(=O)oc2c1 [DERRUSNIN]	115.7	141.7
Oc1cc2c(cc1O)[C@@H]1c3ccc(O)c(O)c3OC[C@]1(O)C2 [HEMATOXYLIN]	91.69	88.87
COc1ccc(-c2cc(=O)c3c(O)cc(O[C@H]4O[C@H](CO[C@@H]5O[C@@H](C)[C@H](O)[C@@H](O)[C@H]5O)[C@@H](O)[C@H](O)[C@H]4O)cc3o2)cc1 [BUDDLEOFLAVONOLOSIDE]	212.4	69.14
NC(=O)c1ccc(N)nc1 [6-AMINONICOTINAMIDE]	108.6	103.2
CC(=O)CCCCn1c(=O)c2c(ncn2C)n(C)c1=O [PENTOXIFYLLINE]	79.59	77.22
C=CCSCC=C [DIALLYL SULFIDE]	95.82	82.5

Structure (SMILES)	residual activity [1] [%]	residual activity [2] [%]
C=N[C@@H](C(=O)N[C@@H]1C(=O)N2[C@@H]1SC(C)(C)[C@@H]2C(=O)[O-])c1ccccc1.[Na+]	54.33	110.5
C=C1[C@@H]([C@@]2(C)C=CC(=O)C(C)(C)[C@@H]2CC(=O)OC)CC[C@@]2(C)[C@H](c3ccoc3)OC(=O)[C@H]3O[C@]132 [ANDIROBIN]	98.71	103.8
O=C1c2ccccc2-c2cccc3cccc1c23 [BENZANTHRONE]	69.74	127.3
Cc1cc(C)nc(NS(=O)(=O)c2ccc(N)cc2)n1 [SULFAMETHAZINE]	97.37	90.46
O=C1OCCN1/N=C/c1ccc([N+](=O)[O-])o1 [FURAZOLIDONE]	94.52	91.17
Cc1cc(=O)c2c(O)c3c(cc2o1)OCC(C)CC3 (stereo unspecified) [DIHYDROPTAEROXYLIN]	85.01	94.2
Nc1nc2ncc(C(=O)O)nc2c(=O)[nH]1 [PTERIN-6-CARBOXYLIC ACID]	99.97	102.1
NC(=O)c1ccc([N+](=O)[O-])cc1Cl [AKLOMIDE]	100.2	115.5
COc1ccc2c(c1O)-c1c(OC)c(OC)cc3c1[C@H](C2)N(C)CC3 [ISOCORYDINE]	102.1	115.2
COc1cc(Cc2cnc(N)nc2N)cc(OC)c1OC [TRIMETHOPRIM]	97.26	82.92
CC(=O)O[C@]1(C)CC[C@@]23C[C@H]1C(C)(C)[C@@H]2CC[C@H]3C [CEDRYL ACETATE]	116.5	134
Cl.c1ccc(CC2=NCCN2)cc1 [TOLAZOLINE HYDROCHLORIDE]	98.49	74.2
NC(=O)c1cc([N+](=O)[O-])cc([N+](=O)[O-])c1 [NITROMIDE]	106.7	103.7
COc1ccc(CN(CCN(C)C)c2ncccn2)cc1.Cl [THONZYLAMINE HYDROCHLORIDE]	91.98	88.59
O=c1[nH]cc(F)c(=O)[nH]1 [FLUOROURACIL]	91.17	86.84
C[C@]12CC[C@H](Cl)C[C@@H]1CC[C@@H]1[C@@H]2CC[C@]2(C)C(=O)CC[C@@H]12	70.61	67.79
C=CC1=C(C)c2cc3[nH]c(cc4nc(cc5[nH]c(cc1n2)c(C)c5CCC(=O)O)C(CCC(=O)O)=C4C)c(C)c3C=C [PROTOPORPHYRIN]	94.63	49.56
CC(=O)c1ccc(O)c(CC=C(C)C)c1 [3-PRENYL-4-HYDROXYACETOPHENONE]	99.32	93.69
COc1cc(O)c2c(c1)C(=O)c1cc(C)cc(O)c1C2=O [PHYSCION]	112.8	111.9
O=C1CCc2cc(OCCCCc3nnnn3C3CCCCC3)ccc2N1 [CILOSTAZOL]	98.73	207.2
O=[N+]([O-])c1ccc(O)c([N+](=O)[O-])c1 [2,4-DINITROPHENOL]	78.36	75.05
CN(C)C(=O)Oc1cccc([N+](C)(C)C)c1.[Br-] [NEOSTIGMINE BROMIDE]	101.1	95.12
CO[C@@]1(NC(=O)Cc2cccs2)C(=O)N2C(C(=O)[O-])=C(COC(N)=O)CS[C@@H]21.[Na+] [CEFOXITIN SODIUM]	82.79	68.58
CC(=O)O.CSC(=N)NCCC[C@H](N)C(=O)O [S-METHYL-L-THIOCITRULLINE ACETATE]	107	104.5
